Source: US11547681B2, “N-acylethanolamide derivatives and uses thereof” (ELIEM THERAPEUTICS, INC., priority 2016, dated 2023)
Read-outs that look alike come from different tables or passages of the source. Blank lines part the entries; values can stand above or below the molecule they belong to.

Experiment: Simulated intestinal fluid (SIF) stability in the presence of various enzymes
Assay type: in vitro ADME
Settings: for % Remaining of Initial: n = 1
Protocol: (§1) Studies were carried out in simulated intestinal fluid in the presence of various enzymes. Simulated intestinal fluid was prepared by dissolving 6.8 g of monobasic potassium phosphate in 1.0 L of water. Aliquots of this solution were taken and the pH was adjusted to 6.8. Individual enzymes were then spiked into aliquots for each experiment. A DMSO stock was first prepared for the test article. Aliquots of the DMSO solution were dosed into 700 μL of matrix, which had been pre-warmed to 37° C., at a final test article concentration of 1 μM. […] Samples were stored at 4° C. until the end of the experiment. After the final time point was sampled, the plate was mixed and then centrifuged at 3,000 rpm for 10 minutes. Calibration standards were prepared in matched matrix. […] Analytical conditions are outlined in Appendix 8-1.
as §1, with “10-1.” for “8-1.”
Studies were carried out in simulated intestinal fluid in the presence of various enzymes. Simulated intestinal fluid was prepared by dissolving 6.8 g of monobasic potassium phosphate in 1.0 L of water. Aliquots of this solution were taken and the pH was adjusted to 6.8. Individual enzymes were then spiked into aliquots for each experiment. A DMSO stock was first prepared for test article. Aliquots of the DMSO solution were dosed into 700 μL of matrix, which had been pre-warmed to 37° C., at a final test article concentration of 1 μM. […] Samples were stored at 4° C. until the end of experiment. After final time point was sampled, the plate was mixed and then centrifuged at 3,000 rpm for 10 minutes. Calibration standards were prepared in matched matrix. […] Analytical conditions are outlined in Appendix 13-1.
as §1, with “17-1.” for “8-1.”

[1] = SIF + Carboxypeptidase A, 0 min, 1 μM
[2] = SIF + Carboxypeptidase A, 15 min, 1 μM
[3] = SIF + Carboxypeptidase A, 30 min, 1 μM
[4] = SIF + Carboxypeptidase A, 60 min, 1 μM
[5] = SIF + Carboxypeptidase A, 120 min, 1 μM
[6] = SIF + Carboxypeptidase B, 0 min, 1 μM
[7] = SIF + Carboxypeptidase B, 15 min, 1 μM
[8] = SIF + Carboxypeptidase B, 30 min, 1 μM
[9] = SIF + Carboxypeptidase B, 60 min, 1 μM
[10] = SIF + Carboxypeptidase B, 120 min, 1 μM
[11] = SIF + Chymotrypsin, 0 min, 1 μM
[12] = SIF + Chymotrypsin, 15 min, 1 μM
[13] = SIF + Chymotrypsin, 30 min, 1 μM
[14] = SIF + Chymotrypsin, 60 min, 1 μM
[15] = SIF + Chymotrypsin, 120 min, 1 μM
[16] = SIF + Pancreatin, 120 min, 1 μM
[17] = simulated intestinal fluid with carboxypeptidase A, pH 6.8, SIF + Carboxypeptidase A, 1 μM, read-out: Half-life
[18] = simulated intestinal fluid with carboxypeptidase B, pH 6.8, SIF + Carboxypeptidase B, 1 μM, read-out: Half-life
[19] = simulated intestinal fluid with chymotrypsin, pH 6.8, SIF + Chymotrypsin, 1 μM, read-out: Half-life
[20] = simulated intestinal fluid with elastase, pH 6.8, SIF + Elastase, 1 μM, read-out: Half-life
[21] = simulated intestinal fluid with pancreatin, pH 6.8, SIF + Pancreatin, 1 μM, read-out: Half-life
[22] = simulated intestinal fluid with trypsin, pH 6.8, SIF + Trypsin, 1 μM, read-out: Half-life

% Remaining of Initial [1]: 100% | % Remaining of Initial [2]: 33% | % Remaining of Initial [3]: 8.7% | % Remaining of Initial [4]: <1.0% | % Remaining of Initial [5]: <1.0% | % Remaining of Initial [6]: 100% | % Remaining of Initial [7]: 30% | % Remaining of Initial [8]: 7.1% | % Remaining of Initial [9]: <1.0% | % Remaining of Initial [10]: <1.0% | % Remaining of Initial [11]: 100% | % Remaining of Initial [12]: 36% | % Remaining of Initial [13]: 8.7% | % Remaining of Initial [14]: <1.0% | % Remaining of Initial [15]: <1.0% | % Remaining of Initial (SIF + Elastase, 0 min, 1 μM): 100% | % Remaining of Initial (SIF + Elastase, 15 min, 1 μM): 38% | % Remaining of Initial (SIF + Elastase, 30 min, 1 μM): 17% | % Remaining of Initial (SIF + Elastase, 60 min, 1 μM): 16% | % Remaining of Initial (SIF + Elastase, 120 min, 1 μM): 17% | % Remaining of Initial (SIF + Trypsin, 0 min, 1 μM): 100% | % Remaining of Initial (SIF + Trypsin, 15 min, 1 μM): 52% | % Remaining of Initial (SIF + Trypsin, 30 min, 1 μM): 31% | % Remaining of Initial (SIF + Trypsin, 60 min, 1 μM): 28% | % Remaining of Initial (SIF + Trypsin, 120 min, 1 μM): 25% | half-life at 1 μM (simulated intestinal fluid with carboxypeptidase A, pH 6.8, SIF + Carboxypeptidase A, read-out: Half-life): < 15 min | half-life at 1 µM (simulated intestinal fluid with carboxypeptidase A, pH 6.8, SIF + Carboxypeptidase A, read-out: Half-life, calculated value in parentheses): 9.2 min | half-life at 1 µM (simulated intestinal fluid with carboxypeptidase B, pH 6.8, SIF + Carboxypeptidase B, read-out: Half-life): < 15 min | half-life at 1 µM (simulated intestinal fluid with carboxypeptidase B, pH 6.8, SIF + Carboxypeptidase B, read-out: Half-life, calculated value in parentheses): 8.5 min | half-life at 1 μM (simulated intestinal fluid with chymotrypsin, pH 6.8, SIF + Chymotrypsin, read-out: Half-life): < 15 min | half-life at 1 μM (simulated intestinal fluid with chymotrypsin, pH 6.8, SIF + Chymotrypsin, read-out: Half-life, calculated value in parentheses): 9.6 min | half-life at 1 μM (simulated intestinal fluid with elastase, pH 6.8, SIF + Elastase, read-out: Half-life): < 15 min | half-life at 1 µM (simulated intestinal fluid with elastase, pH 6.8, SIF + Elastase, read-out: Half-life, calculated value in parentheses): 12 min | half-life at 1 μM (simulated intestinal fluid with trypsin, pH 6.8, SIF + Trypsin, read-out: Half-life): 25 min
SMILES: CCCCCCCCCCCCCCCC(=O)NCCOC(=O)CCC(=O)OC(CO)CO [Compound I-8]

% Remaining of Initial (n = 1) [1]: 100% | % Remaining of Initial (n = 1) [2]: 43% | % Remaining of Initial (n = 1) [3]: 15% | % Remaining of Initial (n = 1) [4]: 10% | % Remaining of Initial (n = 1) [5]: 5.5% | % Remaining of Initial (n = 1) [6]: 100% | % Remaining of Initial (n = 1) [7]: 44% | % Remaining of Initial (n = 1) [8]: 14% | % Remaining of Initial (n = 1) [9]: 6.1% | % Remaining of Initial (n = 1) [10]: 4.7% | % Remaining of Initial (n = 1) [11]: 100% | % Remaining of Initial (n = 1) [12]: 45% | % Remaining of Initial (n = 1) [13]: 24% | % Remaining of Initial (n = 1) [14]: 11% | % Remaining of Initial (n = 1) [15]: 7.2% | % Remaining of Initial (n = 1) (SIF + Elastase, 0 min, 1 μM): 100% | % Remaining of Initial (n = 1) (SIF + Elastase, 15 min, 1 μM): 49% | % Remaining of Initial (n = 1) (SIF + Elastase, 30 min, 1 μM): 22% | % Remaining of Initial (n = 1) (SIF + Elastase, 60 min, 1 μM): 10% | % Remaining of Initial (n = 1) (SIF + Elastase, 120 min, 1 μM): 6.3% | % Remaining of Initial (n = 1) (SIF + Pancreatin, 0 min, 1 μM): 100% | % Remaining of Initial (n = 1) (SIF + Pancreatin, 15 min, 1 μM): 35% | % Remaining of Initial (n = 1) (SIF + Pancreatin, 30 min, 1 μM): 34% | % Remaining of Initial (n = 1) (SIF + Pancreatin, 60 min, 1 μM): 20% | % Remaining of Initial (n = 1) [16]: 13% | % Remaining of Initial (n = 1) (SIF + Trypsin, 0 min, 1 μM): 100% | % Remaining of Initial (n = 1) (SIF + Trypsin, 15 min, 1 μM): 67% | % Remaining of Initial (n = 1) (SIF + Trypsin, 30 min, 1 μM): 49% | % Remaining of Initial (n = 1) (SIF + Trypsin, 60 min, 1 μM): 22% | % Remaining of Initial (n = 1) (SIF + Trypsin, 120 min, 1 μM): 12% | half-life at 1 μM [17]: 12 min | half-life at 1 μM [18]: 12 min | half-life at 1 μM [19]: 14 min | half-life at 1 μM [20]: 15 min | half-life at 1 μM [21]: 17 min | half-life at 1 μM [22]: 29 min
SMILES: CCCCCCCCCCCCCCCC(=O)NCCOC(=O)CCC(=O)OCC(O)CO (stereo not shown) [Compound I-9]

% Remaining of Initial (n = 1) [1]: 100% | % Remaining of Initial (n = 1) [2]: 73% | % Remaining of Initial (n = 1) [3]: 78% | % Remaining of Initial (n = 1) [4]: 42% | % Remaining of Initial (n = 1) [5]: 18% | % Remaining of Initial (n = 1) [6]: 100% | % Remaining of Initial (n = 1) [7]: 68% | % Remaining of Initial (n = 1) [8]: 50% | % Remaining of Initial (n = 1) [9]: 33% | % Remaining of Initial (n = 1) [10]: 9.6% | % Remaining of Initial (n = 1) [11]: 100% | % Remaining of Initial (n = 1) [12]: 84% | % Remaining of Initial (n = 1) [13]: 63% | % Remaining of Initial (n = 1) [14]: 42% | % Remaining of Initial (n = 1) [15]: 21% | % Remaining of Initial (n = 1) (SIF + Elastase, 0 min, 1 μM): 100% | % Remaining of Initial (n = 1) (SIF + Elastase, 15 min, 1 μM): 70% | % Remaining of Initial (n = 1) (SIF + Elastase, 30 min, 1 μM): 50% | % Remaining of Initial (n = 1) (SIF + Elastase, 60 min, 1 μM): 33% | % Remaining of Initial (n = 1) (SIF + Elastase, 120 min, 1 μM): 17% | % Remaining of Initial (n = 1) (SIF + Pancreatin, 0 min, 1 μM): 100% | % Remaining of Initial (n = 1) (SIF + Pancreatin, 15 min, 1 μM): <1.0% | % Remaining of Initial (n = 1) (SIF + Pancreatin, 30 min, 1 μM): <1.0% | % Remaining of Initial (n = 1) (SIF + Pancreatin, 60 min, 1 μM): <1.0% | % Remaining of Initial (n = 1) [16]: <1.0% | % Remaining of Initial (n = 1) (SIF + Trypsin, 0 min, 1 μM): 100% | % Remaining of Initial (n = 1) (SIF + Trypsin, 15 min, 1 μM): 77% | % Remaining of Initial (n = 1) (SIF + Trypsin, 30 min, 1 μM): 62% | % Remaining of Initial (n = 1) (SIF + Trypsin, 60 min, 1 μM): 45% | % Remaining of Initial (n = 1) (SIF + Trypsin, 120 min, 1 μM): 23% | half-life at 1 μM [17]: 53 min | half-life at 1 μM [18]: 34 min | half-life at 1 μM [19]: 50 min | half-life at 1 μM [20]: 37 min | half-life at 1 μM [21]: < 1 min | half-life at 1 μM [22]: 53 min
SMILES: CCCCCCCCCCCCCCCC(=O)NCCOC(=O)CCC(=O)OCC(COC(=O)CCC)OC(=O)CCC (stereo not shown) [Compound I-11]
